From patent US9994915B2, “miR-211 expression and related pathways in human melanoma” (Sanford-Burnham Medical Research Institute, priority 2010, dated 2018)

Experiments:
Type in all cases: cell-based, human
A375 melanoma cells = experiment: cell proliferation (cell counts) of A375 lines; settings: A375/211
Protocol: The over-expression of KCNMA1 is often associated with both cell proliferation and cell migration/invasion in various cancers. Therefore, the effects of depletion of miR-211 and associated over-expression of KCNMA1 on these process in melanoma cells were determined. Proliferation rates of melanoma cell lines stably transfected with the miR-211 expression cassette were compared with those of untransfected melanoma cells and cell lines transfected with the empty expression vector (FIG. 8A), respectively.
Assays were performed using WM1552C, WM1552C/VO, WM1552C/211(400), WM1552C/211(800), A375, A375/VO, and A375/211 cell lines. Cells were grown in log phase, trypsinized, counted using an automated cell counter (Cellometer®, Nexcelom Bioscience), and then seeded into 75 cm^2 flasks at 5×10^5 cells per flask (in triplicate). Media was changed after 6 hours, and cells were further fed every 48 hours (Complete Tu Media). At days 4, 10, 15, and 21, cells were trypsinized, counted (Cellometer®, Nexcelom Bioscience), and then reseeded. Each assay was performed in duplicate for all cell lines.

KCNMA1 transcript = experiment: qRT-PCR of KCNMA1 transcript in WM1552C lines; settings: WM1552C/211(400)
Protocol: Expression levels of all statistically significant and differentially expressed mRNAs and miRNAs were confirmed by qRT-PCR using TaqMan® expression kits (Applied Biosystems) using multiple technical and biological replicates. GAPDH was used as the internal reference probe for normalization of expression values of mRNA, and RNU48 was used for normalization of miRNA. RNA analysis by Northern blots used 20 μg of total RNA concentrated from each sample (melanoma cell lines and melanocytes), separated on 15% urea denaturing polyacrylamide gels by electrophoresis. Gels were electroblotted to nylon membranes, cross-linked by UV, prehybridized in ULTRAhyb®-Oligo (Ambion) for 30 minutes at 42° C., and hybridized with 5′-biotinylated anti-miRNA DNA oligonucleotides (100 nM each) at 42° C. overnight, washed, and detected by chemiluminescence (Brightstar® detection kit, Ambion). Anti-U6 probes were used as a reference control (at 10 pM).
qRT-PCR analyses were then run to determine whether the induced expression of miR-211 in melanoma cells could reduce KCNMA1 transcript levels. […] To further confirm our observations, we measured the correlation between miR-211 expression and KCNMA1 protein levels (FIG. 6D). […] Melanocytes were transfected with anti-miR-211 inhibitors (Exiqon) and the protein expression of KCNMA1 was measured.

PDK4 protein = experiment: western blot of PDK4 protein; settings: miR-211-expressing melanoma cells, gel (FIG. 38)
Excerpt: This target was further confirmed by the cleavage assay, and the downregulation was verified by western blot analysis (FIG. 38). Similarly, peroxisome proliferator-activated receptor-γ coactivator (PGC1α) was identified by the proteomics data and validated by western blot analysis. PGC1α is a low express gene in A375 cells, but it is been targeted by miR-211 according to target cleavage and qPCR results. Finally, insulin-like growth factor-binding protein 5 (IGFBP5) was identified through the RNA-seq data and results are illustrated in FIG. 34.

## miR-211: pre-miR-211 sequence stably expressed from plasmid pcDNA4/miR-211 in melanoma cells; mature sequence UUCCCUUUGUCAUCCUUCGCCU (SEQ ID NO: 15) (listed as Homo sapiens)
A375 melanoma cells
  cell proliferation compared to untransfected A375 or A375/VO: grew more slowly
KCNMA1 transcript
  KCNMA1 transcript expression vs wild type WM1552C: down-regulates
PDK4 protein
  PDK4 protein expression: virtually undetectable
